Laboratory results: US20100143459A1, “PHARMACEUTICAL DOSAGE FORM FOR ORAL ADMINISTRATION OF TYROSINE KINASE INHIBITOR” (ABBOTT GMBH & CO. KG, priority 2006, published 2010)

Experiment: Pharmacokinetics in humans after a 10 mg tablet under fasting conditions
Type: in vivo
Settings: human patients, single 10 mg oral dose, mean±SD
Experimental: Tablets containing a 10 mg dose of ABT-869 ethanolate, as prepared above, were administered to 11 patients in the morning with 240 mL of water under fasting conditions (defined as no food or drink consumption except water and concomitant medications for 2 hours prior to dosing). Following dosing, 4-mL blood samples were collected for pharmacokinetic analyses at the following times: 0 (pre-dose), 1, 3, 4, 6, 8, 24 and 48 hours. These samples were analyzed for ABT-869 plasma concentrations using Liquid Chromatography/Tandem Mass Spectrometry (LCMS/MS). The lower limit of quantification (LLOQ) for the assay was 1.1 ng/mL.
Pharmacokinetic parameters including the maximum observed plasma concentration (Cmax), time to Cmax (Tmax), the area under the plasma concentration-time curve (AUC) from 0 to time of the last measurable concentration (AUC0-48) and AUC from 0 to infinite time (AUCoo) were determined by non-compartmental methods using WinNonlin Professional version 5.2 software.

## Cc1ccc(F)c(NC(=O)Nc2ccc(-c3cccc4[nH]nc(N)c34)cc2)c1 [ABT 869, N-[4-(3-amino-1H-indazol-4-yl)phenyl]-N′-(2-fluoro-5-methylphenyl)-urea]
  AUC0-48 per mg of dose: about 0.40±0.10 μg·h/mL/mg
  AUCoo per mg of dose: about 0.55±0.17 μg·h/mL/mg
  Cmax per mg of dose: about 0.023±0.004 μg/mL/mg
plasma
  Tmax: ~2.8 h
